Source: ChEMBL document CHEMBL5625198, “Design, synthesis and biological evaluation of novel 3-hydroxypyridin-4(1H)-ones based hybrids as Pseudomonas aeruginosa biofilm inhibitors” (Eur J Med Chem, 2023)
Activity calls are given as the source filed them. No cut-off for these calls is given here.

Tests used:
Pseudomonas aeruginosa [1] = assay: Antibiofilm activity against wild-type Pseudomonas aeruginosa PAO1 assessed as inhibition rate at 10 uM incubated for 24 hrs by crystal violet staining based assay relative to control; type: functional
Pseudomonas aeruginosa [2] = assay: Antibacterial activity against wild-type Pseudomonas aeruginosa PAO1 assessed as bacterial growth inhibition by CLSI based broth-microdilution method; type: functional
Pseudomonas aeruginosa [3] = assay: Antibiofilm activity against wild-type Pseudomonas aeruginosa PAO1 incubated for 24 hrs by crystal violet staining based assay; type: functional, organism-based
Pseudomonas aeruginosa [4] = assay: Antibiofilm activity against wild-type Pseudomonas aeruginosa PAO1 at 2.5 uM incubated for 24 hrs by crystal violet staining based assay relative to control; type: functional
Pseudomonas aeruginosa [5] = assay: Antibiofilm activity against wild-type Pseudomonas aeruginosa PAO1 at 20 uM incubated for 24 hrs by confocal laser scanning microscopy; type: functional, organism-based
Pseudomonas aeruginosa [6] = assay: Anti-virulence effect in Pseudomonas aeruginosa PAO1 assessed as decrease in elastase level incubated for 24 hrs by fluorescence based assay; type: functional, organism-based; conditions: dose 1.25-20 µM
Pseudomonas aeruginosa [7] = assay: Anti-virulence effect in Pseudomonas aeruginosa PAO1 assessed as decrease in pyocyanin level incubated for 48 hrs by absorbance based assay; type: functional, organism-based; conditions: dose 1.25-20 µM
Pseudomonas aeruginosa [8] = assay: Effect on rhamnolipid level in Pseudomonas aeruginosa PAO1 at 1.25 to 20 uM incubated for 24 hrs by absorbance based assay; type: functional, organism-based; conditions: dose 1.25-20 µM
[9] = Inhibition of quorum sensing system in Pseudomonas aeruginosa PAO1 harboring lasB-gfp assessed as decrease in lasB expression measured for 12 hrs by fluorescence based assay; conditions: dose 1.25-20 µM
[10] = Inhibition of quorum sensing system in Pseudomonas aeruginosa PAO1 harboring pqsA-gfp assessed as decrease in pqsA expression measured for 12 hrs by fluorescence based assay; conditions: dose 1.25-20 µM
Pseudomonas aeruginosa [11] = assay: Effect on rhlA expression in Pseudomonas aeruginosa PAO1 harboring rhlA-gfp at 1.25 to 20 uM measured for 12 hrs by fluorescence based assay; type: functional; conditions: dose 1.25-20 µM
Pseudomonas aeruginosa [12] = assay: Inhibition of swarming motility in Pseudomonas aeruginosa PAO1 incubated for 16 hrs; type: functional, organism-based; conditions: dose 1.25-20 µM
[13] = Cytotoxicity against African green monkey Vero cells assessed as cell viability at 3.125 to 50 uM incubated for 24 hrs by MTT assay; type: toxicity, cell-based; conditions: chlorocebus sabaeus, dose 3.125-50 µM
Vero = assay: Anti-virulence effect in African green monkey Vero cells infected with Pseudomonas aeruginosa assessed as increase in cell survival incubated for 24 hrs by MTT assay; type: functional, cell-based; conditions: Chlorocebus sabaeus, dose <= 20.0 µM
[14] = Anti-virulence effect in African green monkey Vero cells infected with Pseudomonas aeruginosa assessed as cell survival at 20 uM incubated for 24 hrs by MTT assay (reference value: 37.7 %); type: functional; conditions: Chlorocebus sabaeus, read-out: Activity
Pseudomonas aeruginosa [15] = assay: Synergistic activity against Pseudomonas aeruginosa PAO1 assessed as reduction in ciprofloxacin MIC […] at 20 uM relative to control; type: functional; parameters: scale not given: the % may be the effect or the level left

## COc1ccc2[nH]c(SCC(=O)NCc3c(O)c(=O)cc(C)n3C)nc2c1
Pseudomonas aeruginosa [1]
  inhibition at 10 µM: 16.3%
Pseudomonas aeruginosa [2]
  MIC: > 128 µM

## Cc1cc(=O)c(O)c(CNC(=O)CSc2nc3cc(C(F)(F)F)ccc3[nH]2)n1C
Pseudomonas aeruginosa [2]
  MIC: > 128 µM

## Cn1cc(O)c(=O)cc1CNC(=O)CSc1nc2ccccc2[nH]1
Pseudomonas aeruginosa [2]
  MIC: > 128 µM

## Cc1cc(=O)c(O)c(CNC(=O)CSc2ccccn2)n1C
Pseudomonas aeruginosa [2]
  MIC: > 128 µM

## Cn1cc(O)c(=O)cc1CNC(=O)CSc1nc2ccc([N+](=O)[O-])cc2s1
Pseudomonas aeruginosa [1]
  inhibition at 10 µM: 29.1%
Pseudomonas aeruginosa [2]
  MIC: > 128 µM

## Cc1cccc2sc(SCC(=O)NCc3c(O)c(=O)cc(C)n3C)nc12
Pseudomonas aeruginosa [1]
  inhibition at 10 µM: 20.8%
Pseudomonas aeruginosa [2]
  MIC: > 128 µM

## Cc1cc(=O)c(O)c(CNC(=O)CSc2ncccn2)n1C
Pseudomonas aeruginosa [1]
  inhibition at 10 µM: 7.18%
Pseudomonas aeruginosa [2]
  MIC: > 128 µM

## Cc1cc(=O)c(O)c(CNC(=O)CSc2nccn2C)n1C
Pseudomonas aeruginosa [1]
  inhibition at 10 µM: 30%
Pseudomonas aeruginosa [2]
  MIC: > 128 µM

## Cc1ccc2[nH]c(SCC(=O)NCc3c(O)c(=O)cc(C)n3C)nc2c1
Pseudomonas aeruginosa [1]
  inhibition at 10 µM: 7.4%
Pseudomonas aeruginosa [2]
  MIC: > 128 µM

## Cc1cc(=O)c(O)c(CNC(=O)CSc2nc3c(C(C)(C)C)cccc3o2)n1C
Pseudomonas aeruginosa [1]
  inhibition at 10 µM: 19.4%
Pseudomonas aeruginosa [2]
  MIC: > 128 µM

## Cc1nnc(SCC(=O)NCc2c(O)c(=O)cc(C)n2C)s1
Pseudomonas aeruginosa [1]
  inhibition at 10 µM: -10.2%
Pseudomonas aeruginosa [2]
  MIC: > 128 µM

## Cc1cc(=O)c(O)c(CNC(=O)CSc2nc3c(F)cccc3o2)n1C
Pseudomonas aeruginosa [1]
  inhibition at 10 µM: 27.6%
Pseudomonas aeruginosa [2]
  MIC: > 128 µM

## Cc1cc(=O)c(O)c(CNC(=O)CSc2nc3cc(C#N)ccc3[nH]2)n1C
Pseudomonas aeruginosa [1]
  inhibition at 10 µM: 41.3%
Pseudomonas aeruginosa [2]
  MIC: > 128 µM

## Cc1cc(=O)c(O)c(CNC(=O)CSc2nc3ccccc3[nH]2)n1C
Pseudomonas aeruginosa [1]
  inhibition at 10 µM: 44.6%
Pseudomonas aeruginosa [2]
  MIC: > 128 µM

## Cc1cc(=O)c(O)c(CNC(=O)CSc2nc3cc([N+](=O)[O-])ccc3s2)n1C
Pseudomonas aeruginosa [1]
  inhibition at 10 µM: 10.1%
Pseudomonas aeruginosa [2]
  MIC: > 128 µM

## COc1ccc2nc(SCC(=O)NCc3c(O)c(=O)cc(C)n3C)sc2c1
Pseudomonas aeruginosa [1]
  inhibition at 10 µM: -22.4%
Pseudomonas aeruginosa [2]
  MIC: > 128 µM

## Cc1cc(=O)c(O)c(CNC(=O)CSc2nc3cc(F)ccc3s2)n1C
Pseudomonas aeruginosa [1]
  inhibition at 10 µM: 5%
Pseudomonas aeruginosa [2]
  MIC: > 128 µM

## COc1ccc2sc(SCC(=O)NCc3c(O)c(=O)cc(C)n3C)nc2c1
Pseudomonas aeruginosa [1]
  inhibition at 10 µM: 7.27%
Pseudomonas aeruginosa [2]
  MIC: > 128 µM

## Cc1cc(C)nc(SCC(=O)NCc2c(O)c(=O)cc(C)n2C)n1
Pseudomonas aeruginosa [1]
  inhibition at 10 µM: 22.6%
Pseudomonas aeruginosa [2]
  MIC: > 128 µM

## Cc1cc(=O)c(O)c(CNC(=O)CSc2nncs2)n1C
Pseudomonas aeruginosa [1]
  inhibition at 10 µM: 16.9%
Pseudomonas aeruginosa [2]
  MIC: > 128 µM

## Cc1cc(=O)c(O)c(CNC(=O)CSc2nc3ccc(F)cc3s2)n1C
Pseudomonas aeruginosa [1]
  inhibition at 10 µM: 40.4%
Pseudomonas aeruginosa [2]
  MIC: > 128 µM

## Cc1ccc2[nH]c(SCC(=O)NCc3cc(=O)c(O)cn3C)nc2c1
Pseudomonas aeruginosa [1]
  inhibition at 10 µM: 3.29%
Pseudomonas aeruginosa [2]
  MIC: > 128 µM

## Cc1cc(=O)c(O)c(CNC(=O)CSc2nc3cc([N+](=O)[O-])ccc3[nH]2)n1C
Pseudomonas aeruginosa [1]
  inhibition at 10 µM: 51.5%
Pseudomonas aeruginosa [2]
  MIC: > 128 µM
Pseudomonas aeruginosa [3]; PAO1, 24 h
  IC50: 10.6 µM
Pseudomonas aeruginosa [3]; dose 1.25-20 µM
  Activity: Dose-Dependent Effect
Pseudomonas aeruginosa [4]
  inhibition at 2.5 µM: > 30%
Pseudomonas aeruginosa [5]
  Activity: Active
Pseudomonas aeruginosa [6]
  Activity: Dose-Dependent Effect
Pseudomonas aeruginosa [7]
  Activity: Dose-Dependent Effect
Pseudomonas aeruginosa [8]
  Activity: inactive
[9]
  inhibition: Dose-Dependent Effect
[10]
  inhibition: Dose-Dependent Effect
Pseudomonas aeruginosa [11]
  Activity: inactive
Pseudomonas aeruginosa [12]
  inhibition: Dose-Dependent Effect
[13]
  Activity: Non-Toxic
Vero
  Activity: Dose-Dependent Effect
[14]
  viability at 20 µM: 71.5%
Pseudomonas aeruginosa [15]
  Activity: ~50%

## Cc1cc(=O)c(O)c(CNC(=O)CSc2ccc([N+](=O)[O-])cc2)n1C
Pseudomonas aeruginosa [1]
  inhibition at 10 µM: 31.9%
Pseudomonas aeruginosa [2]
  MIC: > 128 µM

## Cc1cc(=O)c(O)c(CNC(=O)CSc2nc3c(C(C)(C)C)cccc3[nH]2)n1C
Pseudomonas aeruginosa [1]
  inhibition at 10 µM: 14.5%
Pseudomonas aeruginosa [2]
  MIC: > 128 µM

## Cc1cc(=O)c(O)c(CNC(=O)CSc2ccncc2)n1C
Pseudomonas aeruginosa [2]
  MIC: > 128 µM

## Cc1cc(=O)c(O)c(CNC(=O)CSc2nc3c([N+](=O)[O-])cccc3o2)n1C
Pseudomonas aeruginosa [1]
  inhibition at 10 µM: 30.6%
Pseudomonas aeruginosa [2]
  MIC: > 128 µM

## Cc1ccc2nc(SCC(=O)NCc3c(O)c(=O)cc(C)n3C)sc2c1
Pseudomonas aeruginosa [1]
  inhibition at 10 µM: 31.2%
Pseudomonas aeruginosa [2]
  MIC: > 128 µM

## Cc1cc(=O)c(O)c(CNC(=O)CSc2nc3cc(C(F)(F)F)ccc3o2)n1C
Pseudomonas aeruginosa [1]
  inhibition at 10 µM: 39.5%
Pseudomonas aeruginosa [2]
  MIC: > 128 µM

## Cc1cc(=O)c(O)c(CNC(=O)CSc2nc3ccc(F)cc3o2)n1C
Pseudomonas aeruginosa [1]
  inhibition at 10 µM: 25.4%
Pseudomonas aeruginosa [2]
  MIC: > 128 µM

## Cc1cc(=O)c(O)c(CNC(=O)CSc2nc3cc(Cl)ccc3o2)n1C
Pseudomonas aeruginosa [1]
  inhibition at 10 µM: 41.7%
Pseudomonas aeruginosa [2]
  MIC: > 128 µM

## Cn1cc(O)c(=O)cc1CNC(=O)CSc1nc2cc([N+](=O)[O-])ccc2[nH]1
Pseudomonas aeruginosa [1]
  inhibition at 10 µM: -15.2%
Pseudomonas aeruginosa [2]
  MIC: > 128 µM

## Cc1cc(=O)c(O)c(CNC(=O)CSc2nc3cc(F)ccc3[nH]2)n1C
Pseudomonas aeruginosa [1]
  inhibition at 10 µM: 34.7%
Pseudomonas aeruginosa [2]
  MIC: > 128 µM

## COc1ccc(SCC(=O)NCc2c(O)c(=O)cc(C)n2C)cc1
Pseudomonas aeruginosa [1]
  inhibition at 10 µM: -13.6%
Pseudomonas aeruginosa [2]
  MIC: > 128 µM

## Cn1cc(O)c(=O)cc1CNC(=O)CSc1nc2ccccc2s1
Pseudomonas aeruginosa [1]
  inhibition at 10 µM: -5.24%
Pseudomonas aeruginosa [2]
  MIC: > 128 µM

## Cc1cc(=O)c(O)c(CNC(=O)CSc2nc3ccccc3s2)n1C
Pseudomonas aeruginosa [1]
  inhibition at 10 µM: 22.1%
Pseudomonas aeruginosa [2]
  MIC: > 128 µM

## Cc1cc(=O)c(O)c(CNC(=O)CSc2ncc[nH]2)n1C
Pseudomonas aeruginosa [1]
  inhibition at 10 µM: 46.1%
Pseudomonas aeruginosa [2]
  MIC: > 128 µM

## Cc1cc(=O)c(O)c(CNC(=O)CSc2nc3cc(OC(F)F)ccc3[nH]2)n1C
Pseudomonas aeruginosa [1]
  inhibition at 10 µM: 17.6%
Pseudomonas aeruginosa [2]
  MIC: > 128 µM

## Cc1ccc2oc(SCC(=O)NCc3c(O)c(=O)cc(C)n3C)nc2c1
Pseudomonas aeruginosa [1]
  inhibition at 10 µM: 45.8%
Pseudomonas aeruginosa [2]
  MIC: > 128 µM

## Cc1cc(=O)c(O)c(CNC(=O)CSc2nc3ccccc3o2)n1C
Pseudomonas aeruginosa [1]
  inhibition at 10 µM: 26.2%
Pseudomonas aeruginosa [2]
  MIC: > 128 µM

## COc1ccc2oc(SCC(=O)NCc3c(O)c(=O)cc(C)n3C)nc2c1
Pseudomonas aeruginosa [1]
  inhibition at 10 µM: 19.6%
Pseudomonas aeruginosa [2]
  MIC: > 128 µM

## Cc1cc(=O)c(O)c(CNC(=O)CSc2nc3cc(Cl)ccc3s2)n1C
Pseudomonas aeruginosa [1]
  inhibition at 10 µM: 5.12%
Pseudomonas aeruginosa [2]
  MIC: > 128 µM

## Cc1cc(=O)c(O)c(CNC(=O)CSc2nccs2)n1C
Pseudomonas aeruginosa [1]
  inhibition at 10 µM: 46.4%
Pseudomonas aeruginosa [2]
  MIC: > 128 µM

## Cc1cc(=O)c(O)c(CNC(=O)CSc2nc3ccc([N+](=O)[O-])cc3s2)n1C
Pseudomonas aeruginosa [1]
  inhibition at 10 µM: 45.5%
Pseudomonas aeruginosa [2]
  MIC: > 128 µM

## Cc1cccc2oc(SCC(=O)NCc3c(O)c(=O)cc(C)n3C)nc12
Pseudomonas aeruginosa [2]
  MIC: > 128 µM

## CCOc1ccc2[nH]c(SCC(=O)NCc3c(O)c(=O)cc(C)n3C)nc2c1
Pseudomonas aeruginosa [1]
  inhibition at 10 µM: -17.5%
Pseudomonas aeruginosa [2]
  MIC: > 128 µM

## Cc1cc(=O)c(O)c(CNC(=O)CSc2nc3cc(Cl)ccc3[nH]2)n1C
Pseudomonas aeruginosa [2]
  MIC: > 128 µM
